Source: US6906061B2, “Pharmaceutical agent containing Rho kinase inhibitor” (Mitsubishi Pharma Corporation, priority 1996, dated 2005)
pIC50: −log10 of the molar value. Structures can show the parent of a compound that is named as a salt. Where two headings read alike, the source gives them in different places.

Key:
mouse femoral bone = assay: Inhibition of bone resorption (in vitro), mouse femoral bone; conditions: 6 days incubation of ICR mouse femoral bone
Procedure: Inhibition of Bone Resorption (in vitro)
The determination of the in vitro inhibition of bone resorption using mouse femoral bone followed the method below.
The femoral bone of 3-6 week old male ICR mice was aseptically removed, and bone marrow cavity was washed with F12 medium, containing 10% heat inactivated fetal bovine serum, penicillin G calcium (100 units/ml), kanamycin sulfate (60 μg) and 0.15% sodium hydrogencarbonate (hereinafter the medium is to be referred to as culture solution). After washing the bone marrow cavity and then removing the soft tissue adhered to the bone, the bone was subjected to incubation. The test compound was once dissolved in dimethyl sulfoxide (DMSO) to give a 10 mg/ml solution, which was diluted 1000-fold with the culture solution to give a 10 μg/ml solution. The test compounds were respectively added to the concentration shown in Table 7 and, using this culture solution (1.2 ml), the ICR mouse femoral bone was incubated in a 24 well plate for 6 days under the conditions of 5% CO2 gas, 95% air. After the completion of the incubation, the culture supernatant was recovered, and the amount of calcium suspending in the culture supernatant was quantitatively determined by the chelate method using o-cresolphthalein. The bone resorption inhibitory action of the test compound was calculated by the following formula using the incubation of the femoral bone without addition of the test compound as a control. [formula] This experiment was done with 4 cases in each group. As the control, the same amount of DMSO alone as in the case with the addition of the test compound was used.

[1] = test system: BALB/c spleen cells stimulated with C57BL/6 spleen cells; assay: Inhibition of mouse allogenic mixed lymphocyte reaction; assay type: cell-based; conditions: 4 days culture, MTT, read-out: Mouse allogenic MLR inhibitory activity IC50
Procedure: Inhibition of Mouse Allogenic Mixed Lymphocyte Reaction
A mouse allogenic mixed lymphocyte reaction (hereinafter to be referred to as mouse allogenic MLR) was performed by mixed culture (equal ratio) of the spleen cell of BALB/c mice as the reaction cell and the spleen cell of C57BL/6 mice treated with mitomycin C as stimulated cell.
The reaction cells were prepared by the following method. Spleen was removed from 5-6 week old BALB/c mice and treated with RPMI1640 medium (containing kanamycin sulfate (60 μg/ml), penicillin G potassium (100 units/ml), N-2-hydroxyethylpiperazine-N′-2-ethanesulfonate (10 mM), 0.1% sodium hydrogencarbonate and L-glutamin (2 mM)) supplemented with 5% heat inactivated fetal bovine serum (FBS) to give a single cell suspension of the spleen cell. After hemolysis treatment, the suspension was adjusted to10^7 cells/ml with RPMI1640 medium containing 10^−4 M 2-mercaptoethanol and 10% FBS and used as a reaction cell suspension.
The reaction cell suspension (50 μl) prepared by the above method, stimulated cell suspension (50 μl) and the test compound (100 μl) prepared using RPMI1640 medium containing 10% FBS were added to a 96 well plate and incubated at 37° C. under 5% CO2 gas, 95% air for 4 days.
A pigment assay using 3-(4,5-dimethylthiazol-2-yl)-2,5-diphenyltetrazolium bromide (MTT) was applied for the determination of lymphocyte transformation reaction.
After the completion of culture, the supernatant (100 μl) in each well was removed, and 5 mg/ml MTT solution (20 μl) was added to each well, which was followed by incubation at 37° C. for 4 hours. Then, a 0.01 N hydrochloric acid solution (100 μl) containing 10% sodium dodecyl sulfate was added and the mixture was incubated at 37° C. overnight. The resulting purple crystals of formazan was dissolved and absorbance at 550 nm was measured using a microplate absorption meter, which was used as the index of lymphocyte transformation reaction of the mouse allogenic MLR. The inhibition of mouse allogenic MLR was evaluated by calculating the inhibition percentage by the following formula The results are shown in Table 7.

[2] = test system: normal human umberical vascular endothelial cells; assay: Inhibition of angiogenesis (lumen formation in vascular endothelial cells); assay type: cell-based; conditions: 18 hours, compared with the control, number rises with inhibition of lumen formation
Procedure: Inhibition of Angiogenesis
The inhibition of angiogenesis was evaluated by using the inhibition of lumen formation in vascular endothelial cell as an index. To be specific, normal human umberical vascular endothelial cells (KURABO […] LTD.) were suspended in E-GMUV medium at 5.5×10^4 cells/ml and 400 μl therefrom was added on matrigel plate (EHS sarcoma-derived reconstructed basement membrane, Collaborative Biomedical Products). Then, the test compound (1 mM solution, 4 μl) was added and the cells were incubated at 37° C. under 5% CO2 gas for 18 hours. After the completion of the incubation, the number of lumen per predetermined area was counted under a microscope. Inasmuch as the number of lumen increases by the inhibition of lumen formation, the test compound was evaluated by comparison of the number of lumen with the control.

[3] = test system: hind limb skin blood flow; assay: Peripheral blood flow increasing action in STZ-induced diabetic rats; assay type: in vivo, rat; conditions: intravenous
Procedure: Peripheral Blood Flow Increasing Action
Streptozotocin (STZ, 65 mg/kg) was intravenously injected to male SD rats (body weight 200-300 g) to prepare diabetic rats. One month later, STZ-induced diabetic rats were anesthetized with pentobarbital sodium and the blood flow in the hind limb skin was measured with laser blood flowmeter (ALF21R, Advance). The test compound was intravenously administered via catheter dwelled in the carotid arteries, and hind limb skin blood flow increasing action was observed. The blood flow increasing action of the test compound was expressed by increase percentage from the blood flow before administration.

[4] = test system: Bovine Aorta Thoracia Rho Kinase; assay: Rho kinase inhibitory action (inhibition of bovine aorta thoracia Rho kinase); assay type: biochemical; conditions: test compound 10 μM
Procedure: Rho Kinase Inhibitory Action (Inhibition of Bovine Aorta Thoracia Rho Kinase)
The Rho kinase was prepared from bovine aorta of thorax by partial purification as in the following. The artery was minced and homogenized with a 9-fold amount of 50 mM Tris-hydroxymethylaminomethane (Tris) (pH=7.4), 1 mM dithiothreitol, 1 mM EGTA, 1 mM EDTA, 100 μM p-amidinophenylmethylsulfonyl fluoride, 5 μM E-64, 5 μM leupeptine and 5 μM pepstatin A. The homogenate was centrifuged (10,000×g, 30 minutes) to give supernatant. The supernatant was adsorbed onto a hydroxyapatite column. The column was washed with 0.2M phosphate buffer (pH=6.8). The standard product of Rho kinase was eluted with 0.4M phosphate buffer (pH=6.8). The Rho kinase was assayed as follows.
A reaction mixture (total amount 50 μl) containing 50 mM Tris, 1 mM EDTA, 5 mM MgCl2, 50 μg/ml histone, 10 μM GTPγS, 100 μg/ml Rho, 2 μM [^32P]ATP, the Rho kinase (3 μl) prepared in the above and the test compound was reacted at 30° C. for 5 minutes. The reaction was terminated by the addition of 25% trichloroacetic acid (TCA) solution (1 ml) and the mixture was stood at 4° C. for 30 minutes. Then, the mixture was filtered through a membrane filter (HAWP type, Millipore), and the radioactivity of the filter was counted on a liquid scintillation counter. The inhibitory action of the test compound was calculated from the following formula based on the comparison of the radioactivity with the sample without the test compound (control).

[5] = test system: CEM cells (human T cell type established cell); assay: Inhibition of VLA integrin activation (phorbol ester-induced adhesion of CEM cells to fibronectin); assay type: cell-based; conditions: CCRF-CEM, concentration 100 μM, PMA-induced adhesion, read-out: Adhesion induction inhibition (%)
Procedure: Inhibition of VLA (Very Late Antigen) Integrin Activation
As the index of the activation by VLA integrin, phorbol ester-induced adhesion of CEM cells (human T cell type established cell) to fibronectin, which is a ligand of VIA integrin, was measured. The inhibitory action on the induced adhesion by the test compound was determined by the following method.
CEM cells were washed with RPMI1640 medium containing 0.5% bovine serum albumin (BSA), 10 mM HEPES, 2 mM L-glutamin, 1 mM sodium pyruvate, 60 μg/ml kanamycin sulfate and 1.5 mg/ml sodium hydrogencarbonate (hereinafter this medium is referred to as culture solution) and suspended in this medium for use in the following experiment. To each well of a 96 well plate coated with human fibronectin were added CEM cells (5×10^4) and the test compound dissolved in the culture solution (final concentration 1-100 μM) to the amount of 100 μl, and the plate was stood at 37° C. for 1 hour. Then, PMA (phorbol 12-myristate 13-acetate, TPA; final concentration 10 ng/ml) and the test compound were added to the amount of 200 μl, and the plate was stood at 37° C. for 30 minutes. Each well was washed twice with the culture solution (200 μL) at 37° C., and the LDH (lactate dehydrogenase) activity of the cells adhered to the plate was determined, whereby the amount of the adhered cell was measured. Based on the results obtained by the above-mentioned method, the inhibitory action of the test compound on the induced adhesion was calculated by the following formula The results are shown in Table 6. Inhibition (%) of adhesion induction=(a−b)/(a−c)×100 • a=number of cells adhered with the addition of PMA • b=number of cells adhered with the addition of test compound and PMA • c=number of cells adhered without stimulation

SMILES	melting point	other results
N=C(N)N1CCC(C(=O)Nc2ccnc3[nH]ccc23)CC1 (as salt: hydrochloride) (hydrate or solvate) [Compound 199, N-(1H-pyrrolo[2,3-b]pyridin-4-yl)-1-amidino-4-piperidinecarboxamide]	246 °C (dec.)	
O=C(Nc1ccnc2[nH]ccc12)C1CCN(CCc2ccccc2)CC1 (as salt: hydrochloride) (hydrate or solvate) [Compound 198, N-(1H-pyrrolo[2,3-b]pyridin-4-yl)-1-(2-phenylethyl)-4-piperidinecarboxamide]	272 °C (dec.)	
O=C(Nc1ccnc2[nH]ncc12)C1CCNCC1 (as salt: hydrochloride) (hydrate or solvate) [Compound 194, N-(1H-pyrazolo[3,4-b]pyridin-4-yl)-4-piperidinecarboxamide]	277 °C (dec.)	
O=C(Nc1ccnc2[nH]ncc12)C1CCN(CCCc2ccccc2)CC1 (as salt: hydrochloride) (hydrate or solvate) [Compound 203, N-(1H-pyrazolo[3,4-b]pyridin-4-yl)-1-(3-phenylpropyl)-4-piperidinecarboxamide]	240 to 244 °C (dec.)	
COCn1ncc2c(NC(=O)C3CCNCC3)ccnc21 (hydrate or solvate) [Compound 196, N-(1-methoxymethyl-1H-pyrazolo[3,4-b]pyridin-4-yl)-4-piperidinecarboxamide]	240 to 241 °C	
CC(C)(N)[C@H]1CC[C@H](C(=O)Nc2ccnc3[nH]ccc23)CC1 [Compound 110.2HCl.H2O, trans-N-(1H-pyrrolo[2,3-b]pyridin-4-yl)-4-(11-amino-1-methylethyl)cyclohexanecarboxamide]		Bone resorption inhibition % (μM) (mouse femoral bone; 100 μM): 74.0(100) %; pIC50 [1]: 5.96; Number of lumen (10 μM) [2]: 203%
O=C(Nc1ccnc2[nH]ccc12)C1CCN(Cc2ccccc2)CC1 (as salt: hydrochloride) (hydrate or solvate) [Compound 201, N-(1H-pyrrolo[2,3-b]pyridin-4-yl)-1-benzyl-4-piperidinecarboxamide]	260 °C (dec.)	
CC(N)[C@H]1CC[C@H](C(=O)Nc2ccnc3[nH]ncc23)CC1 (single isomer, unassigned; (+)) [Compound 112.2HCl, (+)-trans-N-(1H-pyrazolo[3,4-b]pyridin-4-yl)-4-(1-aminoethyl)cyclohexanecarboxamide]		inhibition at 100 µM (mouse femoral bone; 144 h): 75.7%; pIC50 ([1]; Mus musculus, Lymphocyte, 96 h): 5.36
C[C@@H](N)c1ccc(C(=O)Nc2ccnc3[nH]ncc23)cc1 [Compound 166.2HCl.H2O, (R)-(+)-N-(1H-pyrazolo[3,4-b]pyridin-4-yl)-4-(1-aminoethyl)benzamide]		Increase in skin blood flow ± standard error (%) ([3]; 0.3 μg): 143.2 ± 25.4%; Increase in skin blood flow ± standard error (%) ([3]; 1 μg): 165.9 ± 42.5%
O=C(Nc1ccnc2[nH]ccc12)C1CCN(CCCc2ccccc2)CC1 (as salt: hydrochloride) [Compound 200, N-(1H-pyrrolo[2,3-b]pyridin-4-yl)-1-(3-phenylpropyl)-4-piperidinecarboxamide]	276 °C (dec.)	
O=C(Nc1ccnc2[nH]ncc12)C1CCN(CCc2ccccc2)CC1 (as salt: hydrochloride) (hydrate or solvate) [Compound 202, N-(1H-pyrazolo[3,4-b]pyridin-4-yl)-1-(2-phenylethyl)-4-piperidinecarboxamide]	259 to 261 °C (dec.)	
O=S(=O)(c1cccc2cnccc12)N1CCCNCC1 [Compound 204.2HCl, 1-(5-isoquinolinesulfonyl)homopiperazine]		Inhibition (%) [4]: 93%; inhibition at 100 µM [5]: 82%; Number of lumen (10 μM) [2]: 133%
O=C(Nc1ccnc2[nH]ccc12)C1CCNCC1 (as salt: hydrochloride) (hydrate or solvate) [Compound 193, N-(1H-pyrrolo[2,3-b]pyridin-4-yl)-4-piperidinecarboxamide]	273 °C (dec.)	
O=C(Nc1ccnc2c1CCN2)C1CCNCC1 (as salt: hydrochloride) (hydrate or solvate) [Compound 197, N-(2,3-dihydro-1H-pyrrolo[2,3-b]pyridin-4-yl)-4-piperidinecarboxamide]	235 °C (dec.)	
